Test results reported in patent US11547697B2, “Heterocyclic compounds and uses thereof” (MILLENNIUM PHARMACEUTICALS, INC., priority 2009, dated 2023).
Where two headings read alike, the source gives them in different places.

Legend:
Format in all cases: biochemical
[1] = biological target: p110α/p85α (Homo sapiens (Human), UniProt P42336); test: PI 3-Kinase (human) HTRF assay, p110α/p85α; settings: read-out: PI3K α IC50
[2] = biological target: p110β/p85α (Homo sapiens (Human), UniProt P42338); test: PI 3-Kinase (human) HTRF assay, p110β/p85α; settings: read-out: PI3K β IC50
[3] = biological target: p110δ/p85α (Homo sapiens (Human), UniProt O00329); test: PI 3-Kinase (human) HTRF assay, p110δ/p85α; settings: read-out: PI3K δ IC50
[4] = biological target: p110γ (Homo sapiens (Human), UniProt P48736); test: PI 3-Kinase (human) HTRF assay, p110γ; settings: read-out: PI3K γ IC50
p110γ, sequence (P48736 whole entry): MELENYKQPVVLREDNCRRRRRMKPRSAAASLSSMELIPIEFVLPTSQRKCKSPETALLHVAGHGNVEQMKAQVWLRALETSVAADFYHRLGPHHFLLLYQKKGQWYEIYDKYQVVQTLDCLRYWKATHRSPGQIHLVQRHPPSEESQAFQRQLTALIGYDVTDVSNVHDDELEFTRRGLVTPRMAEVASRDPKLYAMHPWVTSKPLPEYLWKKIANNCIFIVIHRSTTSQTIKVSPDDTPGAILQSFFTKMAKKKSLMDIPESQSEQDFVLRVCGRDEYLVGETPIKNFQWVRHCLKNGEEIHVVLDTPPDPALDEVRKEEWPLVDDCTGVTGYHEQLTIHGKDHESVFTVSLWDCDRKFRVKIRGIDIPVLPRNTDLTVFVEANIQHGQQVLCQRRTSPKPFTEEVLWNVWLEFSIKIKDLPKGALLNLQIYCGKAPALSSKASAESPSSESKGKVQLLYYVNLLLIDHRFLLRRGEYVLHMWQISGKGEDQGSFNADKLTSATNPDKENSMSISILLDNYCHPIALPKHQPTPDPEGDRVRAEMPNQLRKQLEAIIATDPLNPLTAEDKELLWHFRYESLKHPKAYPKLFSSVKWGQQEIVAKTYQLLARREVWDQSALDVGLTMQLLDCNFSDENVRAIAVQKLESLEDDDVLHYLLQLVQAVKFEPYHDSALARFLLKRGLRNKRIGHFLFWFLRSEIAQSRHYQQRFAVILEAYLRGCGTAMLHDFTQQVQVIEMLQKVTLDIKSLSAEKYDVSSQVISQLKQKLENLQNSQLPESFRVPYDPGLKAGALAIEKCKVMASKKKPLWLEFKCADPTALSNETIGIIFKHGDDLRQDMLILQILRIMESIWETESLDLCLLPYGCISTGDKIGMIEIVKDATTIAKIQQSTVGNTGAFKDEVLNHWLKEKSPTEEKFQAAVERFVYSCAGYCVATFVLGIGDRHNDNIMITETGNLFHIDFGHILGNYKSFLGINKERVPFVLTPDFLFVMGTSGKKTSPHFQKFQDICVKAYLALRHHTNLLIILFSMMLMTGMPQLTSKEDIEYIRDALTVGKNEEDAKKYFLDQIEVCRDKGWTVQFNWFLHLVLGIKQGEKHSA

p110δ/p85α, sequence (O00329 whole entry): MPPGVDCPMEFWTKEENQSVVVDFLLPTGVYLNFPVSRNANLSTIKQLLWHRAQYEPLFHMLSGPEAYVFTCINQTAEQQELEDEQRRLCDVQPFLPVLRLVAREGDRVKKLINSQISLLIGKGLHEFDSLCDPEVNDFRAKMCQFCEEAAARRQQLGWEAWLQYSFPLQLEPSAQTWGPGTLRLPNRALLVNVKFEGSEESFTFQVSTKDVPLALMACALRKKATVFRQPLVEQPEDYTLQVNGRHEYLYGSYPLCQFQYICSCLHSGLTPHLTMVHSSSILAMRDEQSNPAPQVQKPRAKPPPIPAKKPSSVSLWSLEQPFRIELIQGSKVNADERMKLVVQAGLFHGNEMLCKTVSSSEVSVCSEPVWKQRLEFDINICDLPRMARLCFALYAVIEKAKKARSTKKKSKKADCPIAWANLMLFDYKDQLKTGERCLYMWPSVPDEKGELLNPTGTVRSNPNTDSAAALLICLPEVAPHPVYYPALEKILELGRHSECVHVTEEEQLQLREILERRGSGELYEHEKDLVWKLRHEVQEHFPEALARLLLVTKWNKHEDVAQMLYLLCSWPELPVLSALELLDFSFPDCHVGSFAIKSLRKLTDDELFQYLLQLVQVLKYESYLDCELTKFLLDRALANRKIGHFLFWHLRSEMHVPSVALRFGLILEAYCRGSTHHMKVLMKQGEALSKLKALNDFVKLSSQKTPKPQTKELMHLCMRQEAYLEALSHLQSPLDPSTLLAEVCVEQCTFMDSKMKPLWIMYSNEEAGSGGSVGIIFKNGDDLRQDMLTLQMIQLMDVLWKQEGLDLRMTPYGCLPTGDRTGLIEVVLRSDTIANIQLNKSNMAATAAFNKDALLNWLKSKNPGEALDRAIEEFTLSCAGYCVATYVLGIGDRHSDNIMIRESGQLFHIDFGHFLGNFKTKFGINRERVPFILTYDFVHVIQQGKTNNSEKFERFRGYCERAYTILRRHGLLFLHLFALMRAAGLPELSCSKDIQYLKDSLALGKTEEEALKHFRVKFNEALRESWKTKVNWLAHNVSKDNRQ
p110δ/p85α, sequence (P27986 whole entry partner): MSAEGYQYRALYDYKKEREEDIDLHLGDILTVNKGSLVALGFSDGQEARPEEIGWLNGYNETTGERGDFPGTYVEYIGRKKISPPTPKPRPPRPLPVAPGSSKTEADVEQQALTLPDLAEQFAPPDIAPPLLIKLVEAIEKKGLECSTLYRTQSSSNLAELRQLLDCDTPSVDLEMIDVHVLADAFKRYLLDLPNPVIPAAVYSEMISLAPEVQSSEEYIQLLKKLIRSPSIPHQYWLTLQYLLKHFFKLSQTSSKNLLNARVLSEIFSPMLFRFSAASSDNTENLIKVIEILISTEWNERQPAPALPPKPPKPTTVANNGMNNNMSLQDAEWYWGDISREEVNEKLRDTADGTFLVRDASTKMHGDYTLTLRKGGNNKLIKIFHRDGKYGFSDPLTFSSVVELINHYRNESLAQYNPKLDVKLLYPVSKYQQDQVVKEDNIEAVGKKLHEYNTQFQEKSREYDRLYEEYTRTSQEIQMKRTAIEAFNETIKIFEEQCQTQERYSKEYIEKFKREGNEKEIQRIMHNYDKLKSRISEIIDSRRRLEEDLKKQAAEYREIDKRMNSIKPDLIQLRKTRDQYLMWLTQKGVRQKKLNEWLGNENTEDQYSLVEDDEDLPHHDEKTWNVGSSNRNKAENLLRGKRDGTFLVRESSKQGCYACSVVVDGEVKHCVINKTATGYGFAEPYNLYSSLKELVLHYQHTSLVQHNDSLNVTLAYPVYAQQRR
p110α/p85α, sequence (P42336 whole entry): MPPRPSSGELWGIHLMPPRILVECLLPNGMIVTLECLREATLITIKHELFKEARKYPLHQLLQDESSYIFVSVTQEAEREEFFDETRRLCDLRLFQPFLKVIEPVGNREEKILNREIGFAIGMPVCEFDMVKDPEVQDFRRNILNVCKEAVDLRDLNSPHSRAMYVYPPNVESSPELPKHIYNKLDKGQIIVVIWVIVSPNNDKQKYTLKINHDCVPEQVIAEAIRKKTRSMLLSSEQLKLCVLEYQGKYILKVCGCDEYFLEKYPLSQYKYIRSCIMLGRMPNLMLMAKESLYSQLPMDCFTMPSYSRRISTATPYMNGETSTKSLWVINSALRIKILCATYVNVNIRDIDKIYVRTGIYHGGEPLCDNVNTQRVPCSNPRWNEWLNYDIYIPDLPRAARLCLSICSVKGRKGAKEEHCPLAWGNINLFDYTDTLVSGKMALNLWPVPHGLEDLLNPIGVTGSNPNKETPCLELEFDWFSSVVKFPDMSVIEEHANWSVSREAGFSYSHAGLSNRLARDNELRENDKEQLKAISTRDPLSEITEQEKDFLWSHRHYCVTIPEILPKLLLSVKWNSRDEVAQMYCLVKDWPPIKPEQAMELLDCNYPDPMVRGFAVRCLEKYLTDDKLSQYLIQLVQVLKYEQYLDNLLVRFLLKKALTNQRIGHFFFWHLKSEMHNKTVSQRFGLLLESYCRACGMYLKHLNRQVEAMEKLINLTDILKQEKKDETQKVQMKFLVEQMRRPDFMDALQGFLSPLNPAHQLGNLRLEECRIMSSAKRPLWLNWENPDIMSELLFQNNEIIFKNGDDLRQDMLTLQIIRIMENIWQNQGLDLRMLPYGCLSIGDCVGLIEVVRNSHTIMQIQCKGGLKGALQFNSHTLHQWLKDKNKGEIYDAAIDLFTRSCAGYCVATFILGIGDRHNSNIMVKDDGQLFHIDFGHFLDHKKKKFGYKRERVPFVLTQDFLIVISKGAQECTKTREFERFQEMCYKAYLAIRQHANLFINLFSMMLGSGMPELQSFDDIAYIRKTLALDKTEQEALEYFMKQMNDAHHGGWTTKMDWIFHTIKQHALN
p110α/p85α, sequence (P27986 whole entry partner): as the sequence (P27986 whole entry partner) above
p110β/p85α, sequence (P42338 whole entry): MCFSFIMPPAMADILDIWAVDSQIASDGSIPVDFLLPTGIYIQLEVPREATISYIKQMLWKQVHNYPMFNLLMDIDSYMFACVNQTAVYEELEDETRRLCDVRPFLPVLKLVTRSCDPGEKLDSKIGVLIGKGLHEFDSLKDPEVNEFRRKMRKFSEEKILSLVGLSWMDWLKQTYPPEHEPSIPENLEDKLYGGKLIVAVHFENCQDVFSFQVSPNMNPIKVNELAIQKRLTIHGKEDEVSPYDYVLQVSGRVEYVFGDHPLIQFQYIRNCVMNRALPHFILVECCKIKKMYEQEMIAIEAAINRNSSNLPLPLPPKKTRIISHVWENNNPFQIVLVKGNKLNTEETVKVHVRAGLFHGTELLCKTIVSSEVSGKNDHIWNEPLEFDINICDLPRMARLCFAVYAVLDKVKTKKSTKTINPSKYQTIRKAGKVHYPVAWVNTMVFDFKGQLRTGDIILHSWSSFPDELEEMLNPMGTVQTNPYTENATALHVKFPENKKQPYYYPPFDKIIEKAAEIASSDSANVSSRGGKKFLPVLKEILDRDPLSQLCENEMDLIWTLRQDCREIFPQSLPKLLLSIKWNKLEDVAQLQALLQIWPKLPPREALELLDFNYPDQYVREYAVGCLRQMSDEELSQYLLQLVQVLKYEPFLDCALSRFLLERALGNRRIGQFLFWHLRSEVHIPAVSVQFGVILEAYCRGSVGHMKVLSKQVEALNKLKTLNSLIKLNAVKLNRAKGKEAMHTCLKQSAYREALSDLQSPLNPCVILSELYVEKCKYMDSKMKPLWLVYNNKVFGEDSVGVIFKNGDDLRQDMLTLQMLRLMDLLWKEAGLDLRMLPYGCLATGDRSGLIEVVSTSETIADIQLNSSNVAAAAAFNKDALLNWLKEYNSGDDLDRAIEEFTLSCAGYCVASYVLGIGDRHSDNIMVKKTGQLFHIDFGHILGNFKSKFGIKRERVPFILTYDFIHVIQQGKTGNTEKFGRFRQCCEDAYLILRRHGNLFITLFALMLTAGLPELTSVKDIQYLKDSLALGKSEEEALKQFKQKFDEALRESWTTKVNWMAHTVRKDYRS
p110β/p85α, sequence (P27986 whole entry partner): as the sequence (P27986 whole entry partner) above

SMILES | IC50 [1] | IC50 [2] | IC50 [3] | IC50 [4] | IC50 ([1]; in vitro) | IC50 ([2]; in vitro) | IC50 ([3]; in vitro) | IC50 ([4]; in vitro)
Nc1nc2cc(-c3ccc4ncc(C(=O)N5CCC(N6CCOCC6)CC5)n4c3)ccc2o1 [compound 163] | < 1 µM | < 10 µM | < 10 µM | < 10 µM |  |  |  | 
CN(C)C1CCN(c2cnc3ccc(-c4ccc5oc(N)nc5c4)cc3n2)CC1 [compound 172] | < 0.1 µM | < 0.1 µM | < 0.1 µM | < 1 µM |  |  |  | 
C[C@H]1CN(c2cnc3ccc(-c4ccc5oc(N)nc5c4)cc3n2)CCN1 [compound 178] | < 0.1 µM | < 0.1 µM | < 1 µM | < 1 µM |  |  |  | 
CC(C)(C)N1CCN(C(=O)c2cnc3ccc(-c4ccc5oc(N)nc5c4)cn23)CC1 [compound 191] | < 0.1 µM | < 10 µM | < 10 µM | < 10 µM |  |  |  | 
NCC(=O)N1CCN(c2cnc3ccc(-c4ccc5oc(N)nc5c4)cc3n2)CC1 [compound 192] | < 0.1 µM | < 1 µM | < 1 µM | < 1 µM |  |  |  | 
COC(=O)N1CCN(c2cnc3ccc(-c4ccc5oc(N)nc5c4)cc3n2)CC1 [compound 193] | < 0.1 µM | < 1 µM | < 10 µM | < 0.1 µM |  |  |  | 
Nc1nc2cc(-c3ccc4ncc(C(=O)N5CCC5)n4c3)ccc2o1 [compound 197] |  |  |  |  | < 0.1 µM | < 10 µM | < 10 µM | < 0.1 µM
CS(=O)(=O)CCN1CCN(C(=O)c2cnc3ccc(-c4ccc5oc(N)nc5c4)cn23)CC1 [compound 198] |  |  |  |  | < 0.1 µM | < 10 µM | < 10 µM | < 1 µM
CS(=O)(=O)CCN1CCC(NC(=O)c2cnc3ccc(-c4ccc5oc(N)nc5c4)cn23)CC1 [compound 199] |  |  |  |  | < 0.1 µM | < 10 µM | < 0.1 µM | < 0.1 µM
CN1CCC(NC(=O)c2cnc3ccc(-c4ccc5oc(N)nc5c4)nn23)CC1 [compound 203] |  |  |  |  | < 0.1 µM | < 0.1 µM | < 1 µM | < 0.1 µM
CNC(=O)C1CN(c2cnc3ccc(-c4ccc5oc(N)nc5c4)cc3n2)C1 [compound 214] |  |  |  |  | < 0.1 µM | < 0.1 µM | < 10 µM | < 1 µM
Nc1nc2cc(-c3ccc4ncc(N5CC(C(=O)NC6CC6)C5)nc4c3)ccc2o1 [compound 215] |  |  |  |  | < 0.1 µM | < 1 µM | < 10 µM | < 1 µM
Nc1nc2cc(-c3ccc4ncc(N5CC(O)C5)nc4c3)ccc2o1 [compound 216] |  |  |  |  | < 0.1 µM | < 1 µM | < 10 µM | < 0.1 µM
CN(C)CC(=O)N1CCN(c2cnc3ccc(-c4ccc5oc(N)nc5c4)cc3n2)CC1 [compound 217] |  |  |  |  | < 0.1 µM | < 1 µM | < 1 µM | < 1 µM
CCN(CC)CCNc1cnc2ccc(-c3ccc4oc(N)nc4c3)cc2n1 [compound 218] |  |  |  |  | < 1 µM | < 1 µM | < 1 µM | < 10 µM
Nc1nc2cc(-c3ccc4ncc(NCCN5CCCC5)nc4c3)ccc2o1 [compound 219] |  |  |  |  | < 1 µM | < 1 µM | < 1 µM | < 1 µM
CCN(CC)CCCNc1cnc2ccc(-c3ccc4oc(N)nc4c3)cc2n1 [compound 220] |  |  |  |  | < 0.1 µM | < 1 µM | < 0.1 µM | < 1 µM
Nc1nc2cc(-c3ccc4ncc(NCCCN5CCCC5)nc4c3)ccc2o1 [compound 221] |  |  |  |  | < 0.1 µM | < 1 µM | < 0.1 µM | < 0.1 µM
Nc1nc2cc(-c3ccc4ncc(NCCCN5CCOCC5)nc4c3)ccc2o1 [compound 222] |  |  |  |  | < 0.1 µM | < 1 µM | < 0.1 µM | < 1 µM
Nc1nc2cc(-c3ccc4ncc(N5CCN(C(=O)[C@H]6CCCN6)CC5)nc4c3)ccc2o1 [compound 225] |  |  |  |  | < 0.1 µM | < 0.1 µM | < 0.1 µM | < 0.1 µM
CN1CCN(C2CCN(c3cnc4ccc(-c5ccc6oc(N)nc6c5)cc4n3)CC2)CC1 [compound 227] |  |  |  |  | < 0.1 µM | < 1 µM | < 0.1 µM | < 10 µM
Nc1nc2ccc(-c3ccc4nnc(-c5ccncc5)n4c3)cc2o1 [compound 230] |  |  |  |  | < 10 µM | < 1 µM | < 10 µM | < 1 µM
COc1nc(-c2ccc3oc(N)nc3c2)cnc1N [compound 238] |  |  |  |  | < 1 µM | < 1 µM | < 10 µM | < 1 µM
CC(Oc1nc(-c2ccc3oc(N)nc3c2)cnc1N)C(F)(F)F (centres unmarked) [compound 239] |  |  |  |  | < 10 µM | < 1 µM | < 10 µM | < 10 µM
Nc1nc2ccc(-c3ccc4sc(N)nc4c3)cc2o1 [compound 249] |  |  |  |  | < 0.1 µM | < 0.1 µM | < 1 µM | < 0.1 µM
CC(=O)Nc1nc2cc(-c3ccc4nc(N)oc4c3)ccc2s1 [compound 251] |  |  |  |  | < 0.1 µM | < 0.1 µM | < 0.1 µM | < 0.1 µM
Nc1nc2cc(-c3ccc4ncn(CCN5CCCC5)c(=O)c4c3)ccc2o1 [compound 255] |  |  |  |  | < 10 µM | < 10 µM | < 10 µM | < 10 µM
CCN(CC)CCNC(=O)c1cnc2ccc(-c3ccc4oc(N)nc4c3)cn12 [compound 295] |  |  |  |  | < 1 µM | < 1 µM | < 1 µM | < 1 µM

Continued, values first:

IC50 [1] | IC50 [2] | IC50 [3] | IC50 [4] | IC50 ([1]; in vitro) | IC50 ([2]; in vitro) | IC50 ([3]; in vitro) | IC50 ([4]; in vitro) | SMILES
 |  |  |  | < 1 µM | < 10 µM | < 0.1 µM | < 10 µM | CCN(CC)CCCNC(=O)c1cnc2ccc(-c3ccc4oc(N)nc4c3)cn12 [compound 302]
 |  |  |  | < 0.1 µM | < 1 µM | < 1 µM | < 1 µM | CN1CCN(CCNC(=O)c2cnc3ccc(-c4ccc5oc(N)nc5c4)cn23)CC1 [compound 306]
 |  |  |  | < 1 µM | < 10 µM | < 1 µM | < 0.1 µM | CC(=O)Nc1nc(C)c(-c2ccc3oc(N)nc3c2)s1 [compound 312]
 |  |  |  | < 1 µM | < 10 µM | < 10 µM | < 10 µM | Nc1nc2cc(-c3ccc4ncc(N5CC(N6CCCC6)C5)nc4c3)ccc2o1 [compound 314]
 |  |  |  | < 0.1 µM | < 1 µM | < 10 µM | < 1 µM | Nc1nc2cc(-c3ccc4ncc(N5CC(n6ccnc6)C5)nc4c3)ccc2o1 [compound 319]
 |  |  |  | < 0.1 µM | < 10 µM | < 10 µM | < 10 µM | Cc1ccn(C2CN(c3cnc4ccc(-c5ccc6oc(N)nc6c5)cc4n3)C2)n1 [compound 320]
 |  |  |  | < 0.1 µM | < 1 µM | < 10 µM | < 1 µM | Nc1nc2cc(-c3ccc4ncc(N5CC(N6CC[C@H](O)C6)C5)nc4c3)ccc2o1 [compound 322]
 |  |  |  | < 0.1 µM | < 10 µM | < 10 µM | < 1 µM | CN1CCN(C2CN(c3cnc4ccc(-c5ccc6oc(N)nc6c5)cc4n3)C2)CC1=O [compound 323]
 |  |  |  | < 0.1 µM | < 10 µM | < 10 µM | < 1 µM | CCN(CC)C1CN(c2cnc3ccc(-c4ccc5oc(N)nc5c4)cc3n2)C1 [compound 324]
 |  |  |  | < 0.1 µM | < 1 µM | < 10 µM | < 0.1 µM | Nc1nc2cc(-c3ccc4ncc(N5CC(N6CCNC(=O)C6)C5)nc4c3)ccc2o1 [compound 325]
 |  |  |  | < 0.1 µM | < 1 µM | < 1 µM | < 1 µM | Nc1nc2cc(-c3ccc4ncc(N5CC(N6CCNCC6)C5)nc4c3)ccc2o1 [compound 326]
 |  |  |  | < 0.1 µM | < 10 µM | < 1 µM | < 1 µM | CC(=O)N1CCN(C2CN(c3cnc4ccc(-c5ccc6oc(N)nc6c5)cc4n3)C2)CC1 [compound 327]
 |  |  |  | < 0.1 µM | < 10 µM | < 10 µM | < 10 µM | CS(=O)(=O)N1CCN(C2CN(c3cnc4ccc(-c5ccc6oc(N)nc6c5)cc4n3)C2)CC1 [compound 328]
 |  |  |  | < 0.1 µM | < 1 µM | < 1 µM | < 10 µM | CCN1CCN(C2CN(c3cnc4ccc(-c5ccc6oc(N)nc6c5)cc4n3)C2)CC1 [compound 329]
 |  |  |  | < 0.1 µM | < 10 µM | < 10 µM | < 10 µM | CC(C)N1CCN(C2CN(c3cnc4ccc(-c5ccc6oc(N)nc6c5)cc4n3)C2)CC1 [compound 331]
 |  |  |  | < 1 µM | < 0.1 µM | < 10 µM | < 1 µM | C[C@H]1CN(c2cnc3ccc(-c4ccc5oc(N)nc5c4)cc3n2)CCN1C [compound 332]
 |  |  |  | < 0.1 µM | < 1 µM | < 1 µM | < 1 µM | Cc1cn(C2CN(c3cnc4ccc(-c5ccc6oc(N)nc6c5)cc4n3)C2)cn1 [compound 339]
 |  |  |  | < 0.1 µM | < 10 µM | < 1 µM | < 10 µM | Cc1nccn1C1CCN(c2cnc3ccc(-c4ccc5oc(N)nc5c4)cc3n2)CC1 [compound 344]
 |  |  |  | < 1 µM | < 10 µM | < 10 µM | < 1 µM | Cc1cc(-c2ccc3oc(N)nc3c2)cc2c(C(=O)N3CCOCC3)cnn12 [compound 357]
 |  |  |  | < 0.1 µM | < 1 µM | < 1 µM | < 1 µM | Nc1nc2cc(-c3ccc4ncc(N5CC(N6CCOCC6)C5)nc4c3)cc(Cl)c2o1 [compound 358]
 |  |  |  | < 0.1 µM | < 1 µM | < 10 µM | < 0.1 µM | Nc1nc2cc(-c3ccc4ncc(C(=O)N5CCOCC5)n4c3)cc(Cl)c2o1 [compound 359]
 |  |  |  | < 0.1 µM | < 1 µM | < 10 µM | < 0.1 µM | Nc1nc2cc(-c3ccc4ncc(C(=O)N5CCOCC5)n4c3)cc(F)c2o1 [compound 360]
